Like-named read-outs stand apart in the source and are kept apart here.
What was measured:
STAT3 = STAT3 (Homo sapiens, UniProt P40763); experiment: Fluorescence polarization competitive binding assay, STAT3 SH2 domain; conditions: for inhibition at 100 µM: read-out: Inhibition of STAT3 at 100 µM; for inhibition at 200 µM: read-out: STAT3 inhibition at 200 μM
Description: Expression and purification of STAT1, STAT3, STAT4, STAT5a, STAT5b, STAT5a Trp566Arg, STAT5b Arg566Trp, STAT5b 6M, STAT5b 7M, STAT6, and Lck have previously been described.[4, 12] STAT proteins were purified over a single His-Bind resin (Millipore) column.
Wild-type and mutant STAT5a/b proteins used for activity analysis of 20 were purified over two successive His-Bind resin columns.[4, 13]
Fluorescence Polarization assays
Competitive binding assays based on fluorescence polarization were essentially carried out as described.[14] Unless stated otherwise, the following final concentration of proteins were used:
STAT4; 105 nM for STAT6; 30 nM for Lck. Final concentration of all peptides: 10 nM. Peptides used: 5-carboxyfluorescein-GpYLVLDKW for STAT5a/b and point mutants thereof; 5-carboxyfluorescein-GpYLPQTV-NH2 for STAT3; 5-carboxyfluorescein-GpYDKPHVL for STAT1; 5-carboxyfluorescein-GpYLPQNID-OH for STAT4; 5-carboxyfluorescein-
analysis of 20 against wild-type (wt) STAT5a/b and STAT5a/b point mutants, the following concentrations of double-purified protein were used, which reflect the approximate Kd values of the interactions with 5-carboxyfluorescein-GpYLVLDKW: STAT5a wt: 147 nM; STAT5b wt:
STAT5b 6M: 80 nM; STAT5b 7M: 282 nM. Assay buffer: 10 mM Tris (pH 8.0), 50 mM NaCl, 1 mM EDTA, 1 mM DTT, 0.1 % Nonidet P-40 substitute, and 2 % DMSO in water. A major part of the pipetting was done using a Biomek FXp sceening robot (Beckman-Coulter). Protein and test compounds were incubated for 1 h, followed by addition of the fluorescein-labeled peptide.
Fluorescence polarization was measured after another hour using an Infinite F500 plate reader (Tecan). IC50 values were converted to Ki-values using the published equation.[15]

STAT5a = target: T1, STAT5a (Homo sapiens, UniProt P42229); experiment: Fluorescence polarization competitive binding assay, STAT5a; conditions: for inhibition at 100 µM: read-out: Inhibition of STAT5a at 100 µM
T1 construct: made in house
T1 sequence (P42229 1-794): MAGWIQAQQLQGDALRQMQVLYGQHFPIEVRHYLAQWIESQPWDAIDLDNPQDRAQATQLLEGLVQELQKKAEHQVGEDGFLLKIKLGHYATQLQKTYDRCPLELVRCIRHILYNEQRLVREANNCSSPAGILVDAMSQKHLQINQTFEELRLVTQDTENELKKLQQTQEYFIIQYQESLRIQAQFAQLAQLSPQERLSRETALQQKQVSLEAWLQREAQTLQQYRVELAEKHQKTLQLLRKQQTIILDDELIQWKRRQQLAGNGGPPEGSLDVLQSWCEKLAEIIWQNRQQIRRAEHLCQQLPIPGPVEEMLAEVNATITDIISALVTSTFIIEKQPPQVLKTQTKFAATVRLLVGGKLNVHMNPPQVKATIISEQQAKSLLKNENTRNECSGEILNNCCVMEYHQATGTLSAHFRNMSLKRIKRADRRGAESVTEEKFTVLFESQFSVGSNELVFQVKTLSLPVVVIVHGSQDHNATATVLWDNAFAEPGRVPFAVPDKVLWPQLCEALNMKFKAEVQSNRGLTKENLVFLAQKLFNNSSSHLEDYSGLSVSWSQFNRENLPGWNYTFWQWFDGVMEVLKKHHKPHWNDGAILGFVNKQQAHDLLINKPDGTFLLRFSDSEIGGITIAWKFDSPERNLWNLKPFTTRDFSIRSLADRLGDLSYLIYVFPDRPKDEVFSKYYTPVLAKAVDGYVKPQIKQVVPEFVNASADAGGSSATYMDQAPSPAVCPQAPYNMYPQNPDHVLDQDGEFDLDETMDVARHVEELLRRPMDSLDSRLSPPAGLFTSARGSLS

STAT5b = target: T2, STAT5b (Homo sapiens, UniProt P51692); experiment: Fluorescence polarization competitive binding assay, STAT5b; conditions: for inhibition at 100 µM: read-out: Inhibition of STAT5b at 100 µM; for inhibition at 200 µM: read-out: STAT5b inhibition at 200 μM
T2 construct: made in house
T2 sequence (P51692 1-787): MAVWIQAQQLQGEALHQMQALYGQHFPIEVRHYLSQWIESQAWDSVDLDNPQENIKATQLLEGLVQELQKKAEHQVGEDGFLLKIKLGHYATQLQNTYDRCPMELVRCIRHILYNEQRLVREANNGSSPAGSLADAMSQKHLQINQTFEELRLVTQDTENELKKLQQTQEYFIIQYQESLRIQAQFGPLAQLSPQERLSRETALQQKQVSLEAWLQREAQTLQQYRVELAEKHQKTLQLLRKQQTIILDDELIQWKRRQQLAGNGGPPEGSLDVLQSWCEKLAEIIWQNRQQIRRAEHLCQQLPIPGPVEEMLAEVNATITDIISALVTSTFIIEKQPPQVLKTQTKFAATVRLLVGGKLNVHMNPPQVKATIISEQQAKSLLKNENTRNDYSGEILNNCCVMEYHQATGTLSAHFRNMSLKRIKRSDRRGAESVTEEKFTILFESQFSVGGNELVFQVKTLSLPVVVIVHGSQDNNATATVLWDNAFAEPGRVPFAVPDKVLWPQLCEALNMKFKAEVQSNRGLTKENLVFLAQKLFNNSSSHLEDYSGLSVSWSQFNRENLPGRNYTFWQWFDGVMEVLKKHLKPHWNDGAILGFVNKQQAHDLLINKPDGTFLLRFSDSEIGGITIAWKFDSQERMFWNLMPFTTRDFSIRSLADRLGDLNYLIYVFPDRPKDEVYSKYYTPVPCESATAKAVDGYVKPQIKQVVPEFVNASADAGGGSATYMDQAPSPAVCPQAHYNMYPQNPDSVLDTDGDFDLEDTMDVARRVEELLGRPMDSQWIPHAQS

[1] = FP assay, IC50 converted to Ki, read-out: STAT5a K i

STAT3, sequence (P40763 whole entry, species assumed, the tested form may be a part): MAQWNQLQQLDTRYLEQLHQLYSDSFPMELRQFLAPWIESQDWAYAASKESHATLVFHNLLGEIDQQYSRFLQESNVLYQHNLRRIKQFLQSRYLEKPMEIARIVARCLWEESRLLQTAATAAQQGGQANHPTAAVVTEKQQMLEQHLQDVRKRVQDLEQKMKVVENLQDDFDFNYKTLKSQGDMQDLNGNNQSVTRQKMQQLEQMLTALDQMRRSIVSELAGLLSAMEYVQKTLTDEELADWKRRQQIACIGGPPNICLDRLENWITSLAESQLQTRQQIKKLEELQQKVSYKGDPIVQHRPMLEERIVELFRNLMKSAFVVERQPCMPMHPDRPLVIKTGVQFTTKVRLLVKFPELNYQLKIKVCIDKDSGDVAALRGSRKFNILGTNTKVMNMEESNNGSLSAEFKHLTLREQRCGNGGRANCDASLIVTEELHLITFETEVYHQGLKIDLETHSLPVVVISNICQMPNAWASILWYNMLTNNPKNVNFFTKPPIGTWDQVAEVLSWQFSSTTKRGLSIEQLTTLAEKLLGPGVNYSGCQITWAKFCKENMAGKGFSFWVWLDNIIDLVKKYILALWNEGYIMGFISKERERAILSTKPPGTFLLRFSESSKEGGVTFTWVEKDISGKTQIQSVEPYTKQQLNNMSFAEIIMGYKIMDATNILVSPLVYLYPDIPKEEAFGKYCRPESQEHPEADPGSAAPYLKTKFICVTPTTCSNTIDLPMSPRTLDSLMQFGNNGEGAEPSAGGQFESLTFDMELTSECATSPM

Row | SMILES | inhibition at 100 µM (STAT3) [%] | inhibition at 100 µM (STAT5a) [%] | inhibition at 100 µM (STAT5b) [%] | inhibition at 200 µM (STAT3) [%] | IC50 (STAT5a) [µM] | Ki (STAT5a) [µM] | IC50 (STAT5b) [µM] | Ki (STAT5b) [µM] | other results
1 | CN(C1CCCCC1)S(=O)(=O)c1cccc(C(=O)N2CCN(c3ccc(OP(=O)(O)O)cc3)CC2)c1 [Compound 9] | 33 ± 5 | 41 ± 8 | 23 ± 8 |  |  |  |  |  | 
2 | COc1ccccc1-c1cc(OP(=O)(O)O)cc(-c2ccccc2OC)c1 [Compound 14] |  |  |  | 28 ± 1 | 88.7 ± 6.1 | 43.9 ± 3 | 158 ± 1 | 78.6 ± 0.4 | 
3 | COc1cccc(-c2cc(OP(=O)(O)O)cc(-c3cccc(OC)c3OC)c2)c1OC [Compound 16] |  |  |  | 15 ± 2 | 45.1 ± 9.8 | 22.3 ± 4.8 |  |  | inhibition at 200 µM (STAT5b): 40 ± 2%
4 | O=C(Cn1ccc2ccccc21)Nc1cccc(OP(=O)(O)O)c1 [Compound 6] | 11 ± 6 | 46 ± 6 | 24 ± 14 |  |  |  |  |  | 
5 | O=C(C=Cc1c(F)c(F)c(F)c(F)c1F)c1cccc(OP(=O)(O)O)c1 [Compound 2] | 43 ± 2 | 51 ± 4 | 37 ± 2 |  |  |  |  |  | 
6 | O=C(Nc1cccc(OP(=O)(O)O)c1)c1cccc(S(=O)(=O)N2CCCC2)c1 [Compound 7] | 3 ± 2 | 26 ± 17 | 4 ± 9 |  |  |  |  |  | 
7 | COc1cccc(-c2cc(OP(=O)(O)O)cc(-c3cccc(OC)c3)c2)c1 [Compound 13] |  |  |  | 51 ± 2 | 32.3 ± 5.7 | 16 ± 2.8 | 86.7 ± 3.1 | 43.1 ± 1.5 | 
8 | COc1ccc(-c2cc(O)cc(-c3ccc(OC)cc3)c2)cc1 [Compound 12 a] |  |  |  |  |  |  |  |  | STAT3 inhibition at 200 μM (STAT3; FP assay, 200 µM): no inhibition; STAT5a inhibition at 200 μM (STAT5a; FP assay, 200 µM): no inhibition; STAT5b inhibition at 200 μM (STAT5b; FP assay, 200 μM (highest concentration tested)): no inhibition
9 | O=P(O)(O)Oc1cc(-c2ccc3c(c2)OCO3)cc(-c2ccc3c(c2)OCO3)c1 [Compound 18] |  |  |  |  | 28.4 ± 4.4 | 14 ± 2.1 | 56.4 ± 1 | 28 ± 0.5 | IC50 (STAT3): 129 ± 5 µM; Ki (STAT3): 63.8 ± 2.3 µM
10 | COc1ccc(-c2cc(OP(=O)(O)O)cc(-c3ccc(OC)cc3)c2)cc1 [Compound 12] |  |  |  |  | 27.9 ± 1.7 | 13.8 ± 0.8 | 77.5 ± 0.4 | 38.5 ± 0.2 | IC50 (STAT3): 156 ± 12 µM; Ki (STAT3): 77.1 ± 5.8 µM
11 | O=C(CCNS(=O)(=O)c1ccc(C2CCCCC2)cc1)N1CCN(c2ccc(OP(=O)([O-])[O-])cc2)CC1.[Na+].[Na+] [Compound 8] |  |  |  |  |  |  |  |  | Inhibition of STAT3 at 100 µM (STAT3; FP assay, 100 µM): 33±2%; Inhibition of STAT5a at 100 µM (STAT5a; FP assay, 100 µM): 65±5%; Inhibition of STAT5b at 100 µM (STAT5b; FP assay, 100 µM): 63±1%
12 | O=P(O)(O)Oc1cc(-c2cc(F)c(F)c(F)c2)cc(-c2cc(F)c(F)c(F)c2)c1 [Compound 22] |  |  |  |  | 21.9 ± 2.1 | 10.8 ± 1.1 | 46.9 ± 0.9 | 23.3 ± 0.4 | IC50 (STAT3): 102 ± 9 µM; Ki (STAT3): 50.4 ± 4.2 µM
13 | COc1cc(-c2cc(-c3cc(OC)c(OC)c(OC)c3)cc(C(F)(F)P(=O)(O)O)c2)cc(OC)c1OC [Compound 25] |  |  |  |  |  |  |  |  | Ki (STAT5a; [1]): 52 ± 3 µM
14 | O=C(C=Cc1ccccc1C(F)(F)F)c1cccc(OP(=O)(O)O)c1 [Compound 3] | 53 ± 3 | 37 ± 9 | 31 ± 3 |  |  |  |  |  | 
15 | COc1cc(-c2cccc(OP(=O)(O)O)c2)cc(OC)c1OC [Compound 23] |  |  |  | 40 ± 1 | 106 ± 4 | 53 ± 2.1 |  |  | drop in activity against STAT5a on deletion of one phenyl ring of 20 (STAT5a; compared with 20): 5 fold; inhibition at 200 µM (STAT5b): 39 ± 1%
16 | O=C(c1ccc([N+](=O)[O-])cc1)c1coc2ccc(OP(=O)(O)O)cc12 [Compound 5] | 26 ± 8 | 87 ± 2 | 88 ± 1 |  |  |  |  |  | 
17 | O=P(O)(O)Oc1cc(-c2ccc3c(c2)OCCO3)cc(-c2ccc3c(c2)OCCO3)c1 [Compound 19] |  |  |  |  | 22.5 ± 3.8 | 11.1 ± 1.9 | 71.2 ± 5.7 | 35.4 ± 2.8 | IC50 (STAT3): 104 ± 4 µM; Ki (STAT3): 51.2 ± 2 µM
18 | COc1ccc(-c2cc(OP(=O)(O)O)cc(-c3ccc(Cl)cc3)c2)cc1 [Compound 1] | 43 ± 5 | 73 ± 5 | 73 ± 3 |  | 39.9 ± 1.9 | 19.7 ± 0.9 | 49.4 ± 3.3 | 24.5 ± 1.6 | IC50 (STAT3): 120 ± 10 µM; Ki (STAT3): 59.2 ± 5 µM
19 | COc1cc(-c2cc(-c3cc(OC)c(OC)c(OC)c3)cc(C(F)P(=O)(O)O)c2)cc(OC)c1OC (centres unmarked) [Compound 26] |  |  |  |  |  |  |  |  | Ki (STAT5a; [1]): 28 ± 3 µM; selectivity over STAT5b and other STAT proteins (STAT5a; FP assays): retained selectivity over STAT5b and other STAT proteins
20 | COc1cc(OC)cc(-c2cc(OP(=O)(O)O)cc(-c3cc(OC)cc(OC)c3)c2)c1 [Compound 17] |  |  |  | 50 ± 3 | 34.7 ± 4.5 | 17.1 ± 2.2 | 73.4 ± 5 | 36.5 ± 2.5 | 
21 | O=P(O)(O)Oc1cc(-c2ccc(Cl)cc2)cc(-c2ccc(Cl)cc2)c1 [Compound 10] |  |  |  |  | 42.2 ± 3.3 | 20.9 ± 1.6 | 37.7 ± 0.05 | 18.7 ± 0.02 | IC50 (STAT3): 38.4 ± 1.7 µM; Ki (STAT3): 18.9 ± 0.9 µM
22 | COc1ccc(-c2cc(OP(=O)(O)O)cc(-c3ccc(OC)c(OC)c3)c2)cc1OC [Compound 15] |  |  |  | 43 ± 2 | 33.4 ± 5.2 | 16.5 ± 2.5 |  |  | inhibition at 200 µM (STAT5b): 44 ± 3%
23 | COc1cc(-c2cc(CP(=O)(O)O)cc(-c3cc(OC)c(OC)c(OC)c3)c2)cc(OC)c1OC [Compound 24] |  |  |  |  |  |  |  |  | Ki (STAT5a; [1]): 75 ± 13 µM
24 | COc1ccc(-c2cc(OP(=O)(O)O)cc(-c3ccc(OC)c(OC)c3OC)c2)c(OC)c1OC [Compound 21] |  |  |  | 15 ± 3 | 111 ± 10 | 55.2 ± 4.9 |  |  | inhibition at 200 µM (STAT5b): 28 ± 2%
25 | O=P(O)(O)Oc1cc(-c2ccccc2)cc(-c2ccccc2)c1 [Compound 11] |  |  |  | 48 ± 1 | 47.9 ± 4.3 | 23.7 ± 2.1 | 95 ± 3 | 48.4 ± 2 | 
26 | CC(=O)Nc1ccc(C=CC(=O)c2cccc(OP(=O)(O)O)c2)cc1 [Compound 4] | 29 ± 7 | 57 ± 2 | 52 ± 4 |  |  |  |  |  | 
